From patent US8883782B2, “Spiro-tetracyclic ring compounds as beta-secretase modulators and methods of use” (Amgen Inc., priority 2010, dated 2014)
Read-outs that look alike come from different tables or passages of the source.

Tests used:
[1] = target: Beta Secretase enzyme (BACE) (Homo sapiens, UniProt P56817); test: In vitro enzymatic BACE FRET (fluorescence resonance energy transfer) assay; assay type: biochemical
Summary of the method: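 Fluorescence read after Tris quench to neutral pH. Reaction: 50 nM fluorophore/quencher peptide substrate, 1 h, in 0.05 M acetate pH 4.2, 10% DMSO final, 100 uM genapol.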

[2] = system: Aβ40 in conditioned medium of cells stably expressing Amyloid Precursor Protein (APP); test: In vitro BACE cell-based assay (Aβ40 in conditioned medium, sandwich ELISA)
Summary of the method: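 The sandwich ELISA pairs pAb40 capture (3 h, 4 °C) with 6E10 detection (2 h, 4 °C) and a streptavidin-europium TRF read-out. Supernatants come from APP-expressing cells grown in 10% FBS DMEM.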

[3] = average IC50, enzyme assay, read-out: BACE 1 FRET assay
[4] = Homo sapiens, HEK293, average IC50, HEK cells, read-out: HEK cell assay
[5] = average IC50, HEK cells, read-out: HEK cell assay

Chain of Beta Secretase enzyme (BACE) (P56817 46-501, species assumed): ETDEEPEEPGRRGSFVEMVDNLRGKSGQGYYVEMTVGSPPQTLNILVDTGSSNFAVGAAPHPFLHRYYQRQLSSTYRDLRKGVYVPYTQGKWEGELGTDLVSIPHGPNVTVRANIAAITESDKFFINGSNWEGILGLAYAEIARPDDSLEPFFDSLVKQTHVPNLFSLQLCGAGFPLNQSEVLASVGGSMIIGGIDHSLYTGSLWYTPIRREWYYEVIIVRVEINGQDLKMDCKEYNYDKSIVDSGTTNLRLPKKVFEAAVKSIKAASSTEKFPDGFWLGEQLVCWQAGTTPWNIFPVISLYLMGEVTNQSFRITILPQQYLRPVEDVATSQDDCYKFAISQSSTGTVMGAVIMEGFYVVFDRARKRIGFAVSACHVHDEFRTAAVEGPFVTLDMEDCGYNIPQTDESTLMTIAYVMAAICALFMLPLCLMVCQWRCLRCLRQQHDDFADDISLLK

Structure (SMILES) | IC50 [1, 3] | IC50 [2, 4] | IC50 [2, 5] | IC50 ([1]; BACE 1 FRET assay (uM)) | IC50 ([2]; Homo sapiens, HEK293, read-out: HEK cell assay (uM), average IC50, HEK cells)
CC1(C)C[C@@H](c2cnc3c(c2)[C@]2(COC(N)=N2)c2cc(-c4cccnc4F)ccc2O3)CCO1 [Example 470, (5S)-3-((4S)-2,2-dimethyltetrahydro-2H-pyran-4-yl)-7-(2-fluoro-3-pyridinyl)spiro[chromeno[2,3-b]pyridine-5,4′-[1,3]oxazol]-2′-amine] | 0.0033 µM | 0.0149 µM |  |  | 
CC1(C)C[C@H](c2cnc3c(c2)[C@]2(COC(N)=N2)c2cc(-c4cccc(C#N)c4)ccc2O3)CCO1 [Example 471, 3-((5S)-2′-amino-3-((4R)-2,2-dimethyltetrahydro-2H-pyran-4-yl)spiro[chromeno[2,3-b]pyridine-5,4′-[1,3]oxazol]-7-yl)benzonitrile] | 0.0051 µM |  | 0.014 µM |  | 
CC1(C)C[C@@H](c2cnc3c(c2)[C@]2(COC(N)=N2)c2cc(-c4cccc(C#N)c4)ccc2O3)CCO1 [Example 472, 3-((5S)-2′-amino-3-((4S)-2,2-dimethyltetrahydro-2H-pyran-4-yl)spiro[chromeno[2,3-b]pyridine-5,4′-[1,3]oxazol]-7-yl)benzonitrile] | 0.0023 µM | 0.0044 µM |  |  | 
CC1(C)C[C@H](c2cnc3c(c2)[C@]2(COC(N)=N2)c2cc(-c4cccc(Cl)c4)ccc2O3)CCO1 [Example 473, (5S)-7-(3-chlorophenyl)-3-((4R)-2,2-dimethyltetrahydro-2H-pyran-4-yl)spiro[chromeno[2,3-b]pyridine-5,4′-[1,3]oxazol]-2′-amine] | 0.0021 µM | 0.0155 µM |  |  | 
CC1(C)C[C@@H](c2cnc3c(c2)[C@]2(COC(N)=N2)c2cc(-c4cccc(Cl)c4)ccc2O3)CCO1 [Example 474, (5S)-7-(3-chlorophenyl)-3-((4S)-2,2-dimethyltetrahydro-2H-pyran-4-yl)spiro[chromeno[2,3-b]pyridine-5,4′-[1,3]oxazol]-2′-amine] | 0.0009 µM |  | 0.0094 µM |  | 
CC1(C)C[C@H](c2cnc3c(c2)[C@]2(COC(N)=N2)c2cc(-c4cncc(Cl)c4)ccc2O3)CCO1 [Example 475, (5S)-7-(5-chloro-3-pyridinyl)-3-((4R)-2,2-dimethyltetrahydro-2H-pyran-4-yl)spiro[chromeno[2,3-b]pyridine-5,4′-[1,3]oxazol]-2′-amine] | 0.0022 µM | 0.0073 µM |  |  | 
CC1(C)C[C@@H](c2cnc3c(c2)[C@]2(COC(N)=N2)c2cc(-c4cncc(Cl)c4)ccc2O3)CCO1 [Example 476, (5S)-7-(5-chloro-3-pyridinyl)-3-((4S)-2,2-dimethyltetrahydro-2H-pyran-4-yl)spiro[chromeno[2,3-b]pyridine-5,4′-[1,3]oxazol]-2′-amine] | 0.0013 µM |  | 0.0049 µM |  | 
NC1=N[C@@]2(CO1)c1cc(-c3cccnc3N3CCC(F)(F)CC3)ccc1Oc1ncc(N3CCC(F)(F)CC3)cc12 [Example 477, (5S)-3-(4,4-difluoro-1-piperidinyl)-7-(2-(4,4-difluoro-1-piperidinyl)-3-pyridinyl)spiro[chromeno[2,3-b]pyridine-5,4′-[1,3]oxazol]-2′-amine] | 0.33 µM | 1.2 µM |  |  | 
NC1=N[C@@]2(CO1)c1cc(-c3cccnc3F)ccc1Oc1ncc(N3CCC(F)(F)CC3)cc12 [Example 478, (5S)-3-(4,4-difluoro-1-piperidinyl)-7-(2-fluoro-3-pyridinyl)spiro[chromeno[2,3-b]pyridine-5,4′-[1,3]oxazol]-2′-amine] | 0.0021 µM | 0.0143 µM |  |  | 
NC1=N[C@@]2(CO1)c1cc(-c3cccnc3F)ccc1Oc1ncc(N3CCC(F)(F)C3)cc12 [Example 479, (5S)-3-(3,3-difluoro-1-pyrrolidinyl)-7-(2-fluoro-3-pyridinyl)spiro[chromeno[2,3-b]pyridine-5,4′-[1,3]oxazol]-2′-amine] | 0.0011 µM | 0.0044 µM |  |  | 
CC1(C)CCN(c2cnc3c(c2)[C@]2(COC(N)=N2)c2cc(-c4cccnc4F)ccc2O3)CC1 [Example 480, (5S)-3-(4,4-dimethyl-1-piperidinyl)-7-(2-fluoro-3-pyridinyl)spiro[chromeno[2,3-b]pyridine-5,4′-[1,3]oxazol]-2′-amine] | 0.0025 µM | 0.0094 µM |  |  | 
COc1ccc(F)c(-c2ccc3c(c2)[C@@]2(COC(N)=N2)c2cc(N4CCOC(C)(C)C4)cnc2O3)c1 [Example 481, (5S)-3-(2,2-dimethyl-4-morpholinyl)-7-(2-fluoro-5-methoxyphenyl)spiro[chromeno[2,3-b]pyridine-5,4′-[1,3]oxazol]-2′-amine] | 0.0027 µM | 0.0192 µM |  |  | 
Cc1ccnc(F)c1-c1ccc2c(c1)[C@@]1(COC(N)=N1)c1cc(N3CCOC(C)(C)C3)cnc1O2 [Example 482, (5S)-3-(2,2-dimethyl-4-morpholinyl)-7-(2-fluoro-4-methyl-3-pyridinyl)spiro[chromeno[2,3-b]pyridine-5,4′-[1,3]oxazol]-2′-amine] | 0.0034 µM | 0.0144 µM |  |  | 
CC1(C)CCCN(c2cnc3c(c2)[C@]2(COC(N)=N2)c2cc(-c4cccnc4F)ccc2O3)C1 [Example 483, (5S)-3-(3,3-dimethyl-1-piperidinyl)-7-(2-fluoro-3-pyridinyl)spiro[chromeno[2,3-b]pyridine-5,4′-[1,3]oxazol]-2′-amine] | 0.0034 µM | 0.0223 µM |  |  | 
NC1=N[C@]2(CO1)c1cc(Br)ccc1Oc1nc(F)ccc12 [Example 484, (5R)-7-bromo-2-fluorospiro[chromeno[2,3-b]pyridine-5,4′-[1,3]oxazol]-2′-amine] | 24.6 µM | 10 µM |  |  | 
NC1=N[C@]2(CO1)c1cc(-c3cccnc3F)ccc1Oc1nc(F)ccc12 [Example 485, (5R)-2-fluoro-7-(2-fluoro-3-pyridinyl)spiro[chromeno[2,3-b]pyridine-5,4′-[1,3]oxazol]-2′-amine] | 0.175 µM | 0.852 µM |  |  | 
NC1=N[C@]2(CO1)c1cc(-c3cccnc3)ccc1Oc1c2cc(-c2cccnc2)nc1F [Example 486, (5R)-1-fluoro-3,7-di-3-pyridinylspiro[chromeno[2,3-c]pyridine-5,4′-[1,3]oxazol]-2′-amine] | 0.301 µM | 0.326 µM |  |  | 
CC(C)(C)/C=C/c1ccc2c(c1)[C@]1(COC(N)=N1)c1cc(-c3cncnc3)c(F)cc1O2 [Example 496, (4R)-7′-((1E)-3,3-dimethyl-1-buten-1-yl)-3′-fluoro-2′-(5-pyrimidinyl)spiro[1,3-oxazole-4,9′-xanthen]-2-amine] |  |  |  | 0.0014 µM | 0.0311 µM

Further lines, with some results ahead:

IC50 [1, 3] | IC50 [2, 4] | IC50 [2, 5] | Structure (SMILES) | IC50 ([1]; BACE 1 FRET assay (uM)) | IC50 ([2]; Homo sapiens, HEK293, read-out: HEK cell assay (uM), average IC50, HEK cells)
3.68 µM | 0.74 µM |  | NC1=N[C@@]2(CO1)c1cc(Br)ccc1Oc1c2cc(Cl)nc1F [Example 487, (5S)-7-bromo-3-chloro-1-fluorospiro[chromeno[2,3-c]pyridine-5,4′-[1,3]oxazol]-2′-amine] |  | 
0.0066 µM | 0.358 µM |  | NC1=N[C@@]2(CO1)c1cc(-c3cccnc3F)ccc1Oc1c2cc(Cl)nc1F [Example 488, (5S)-3-chloro-1-fluoro-7-(2-fluoro-3-pyridinyl)spiro[chromeno[2,3-c]pyridine-5,4′-[1,3]oxazol]-2′-amine] |  | 
8.12 µM | 10 µM |  | NC1=N[C@]2(CO1)c1cc(Br)ccc1Oc1c(F)cc(Cl)nc12 [Example 489, (10R)-8-bromo-2-chloro-4-fluorospiro[chromeno[3,2-b]pyridine-10,4′-[1,3]oxazol]-2′-amine] |  | 
0.007 µM | 0.0226 µM |  | COc1nc(-c2cccnc2)cc2c1Oc1ccc(-c3cccnc3)cc1[C@@]21COC(N)=N1 [Example 490, (5S)-1-methoxy-3,7-di-3-pyridinylspiro[chromeno[2,3-c]pyridine-5,4′-[1,3]oxazol]-2′-amine] |  | 
0.0005 µM | 0.0053 µM |  | NC1=N[C@@]2(CO1)c1cc(-c3cccnc3)ccc1Oc1c2cc(-c2cccnc2)nc1F [Example 494, (5S)-1-fluoro-3,7-di-3-pyridinylspiro[chromeno[2,3-c]pyridine-5,4′-[1,3]oxazol]-2′-amine] |  | 
0.0025 µM | 0.0372 µM |  | CC(C)(C)C#Cc1ccc2c(c1)[C@]1(COC(N)=N1)c1cc(-c3cncnc3)c(F)cc1O2 [Example 497, (4R)-7′-(3,3-dimethyl-1-butyn-1-yl)-3′-fluoro-2′-(5-pyrimidinyl)spiro[1,3-oxazole-4,9′-xanthen]-2-amine] |  | 
0.0038 µM | 0.0191 µM |  | CC1(C#Cc2ccc3c(c2)[C@]2(COC(N)=N2)c2cc(-c4cncnc4)c(F)cc2O3)COC1 [Example 498, (4R)-3′-fluoro-7′-((3-methyl-3-oxetanyl)ethynyl)-2′-(5-pyrimidinyl)spiro[1,3-oxazole-4,9′-xanthen]-2-amine] |  | 
0.0022 µM | 0.0227 µM |  | COc1ccc(Cl)c(-c2ccc3c(c2)[C@@]2(COC(N)=N2)c2cc(C4=CCOCC4)cnc2O3)c1 [Example 499, (5S)-7-(2-chloro-5-methoxyphenyl)-3-(3,6-dihydro-2H-pyran-4-yl)spiro[chromeno[2,3-b]pyridine-5,4′-[1,3]oxazol]-2′-amine] |  | 
0.0117 µM | 0.0368 µM |  | CNC(=O)c1ccc(F)c(-c2ccc3c(c2)[C@@]2(COC(N)=N2)c2cc(C4=CCOCC4)cnc2O3)c1 [Example 500, 3-((5S)-2′-amino-3-(3,6-dihydro-2H-pyran-4-yl)spiro[chromeno[2,3-b]pyridine-5,4′-[1,3]oxazol]-7-yl)-4-fluoro-N-methylbenzamide] |  | 
0.0022 µM | 0.027 µM |  | NC1=N[C@@]2(CO1)c1cc(-c3cc(Cl)ccc3Cl)ccc1Oc1ncc(C3=CCOCC3)cc12 [Example 501, (5S)-7-(2,5-dichlorophenyl)-3-(3,6-dihydro-2H-pyran-4-yl)spiro[chromeno[2,3-b]pyridine-5,4′-[1,3]oxazol]-2′-amine] |  | 
